Reference: patent US6765020B2, “Drugs for prevention and treatment of diseases caused by abnormalities in cartilage tissues” (Suntory Limited, priority 1995, dated 2004)

Key:
[1] = tested on: carrageenan-induced edema; conditions: rat models; cited from earlier work
[2] = tested on: chondrocytes of the rabbit knee joint; experiment: Synthesis of type II collagen by primary culture of chondrocytes (density of 116 kD band on electrophoresis); assay type: cell-based; conditions: for Activity of recovering the synthesis of type II collagen inhibited by arachidonic acid: fatty acid added at 300 μM
Method: Using the primary culture of chondrocytes of the rabbit knee joint, the effects of mead acid on the synthesis of type II collagen was compared with that of other fatty acids, in particular arachidonic acid. The mead acid used was 99% 5,8,11-cis-eicosatrienoic acid ethyl ester highly purified in the same manner as in Example 1, and for arachidonic acid, oleic acid and linoleic acid, the commercially available 99% ethyl esters thereof were used. Chondrocytes were prepared from the knee joints of 4-week old Japan white rabbits in accordance with the method of Suzuki and Shimomura [Shimomurra, Y., Yoneda, T., Suzuki, F. Osteogenesis by chondrocyte from growth cartilage of rat rib., Calcif. Tissue Int., 19:179-187, 1975]. The chondrocytes were plated at 10,000 cells/well of the 96-well plate (Iwaki Glass K.K.) in (MEM medium (50 μg/ml vitamin C, 1 ng/ml b-FGF were added) supplemented with 10% bovine calf serum, and pre-incubated for two days (5% CO2, 37° C.). The fatty acids were suspended in 0.0625% HCO-60 prior to use. As the pre-treatment with the fatty acids, the plates were divided into three groups and added thereto the solvent (0.0625% HCO-60) (group A), mead acid (the final concentration, 300 μM) (group B), and arachidonic acid (the final concentration, 300 μM) (group C), and then incubated for about 5 days while the culture medium and the fatty acids were replaced with fresh ones every two days.
Subsequently, the culture medium was replaced with αMEM medium (1 μg/ml transferrin, 1 μM dexamethasone, 2 μg/ml insulin, 50 μg/ml vitamin C) and each fatty acid (mead acid, arachidonic acid, oleic acid, and linoleic acid) was added thereto to a final concentration of 300 μM followed by incubation for seven days to synthesize extracellular matrix. The culture medium and each of the fatty acids were replaced every 2 days with freshly prepared ones. Pepsin (2 mg/ml) acetate solution was added to the plate at 200 μl/well and treated at 37° C. for 24 hours. The residue was recovered from each well and was centrifuged at 15,000 rpm for 10 minutes to form a precipitate, which was then washed once with tris-EDTA buffer (pH 8.0) and dissolved in 100 μl of the SDS sample buffer.
The amount of type II collagen synthesized was determined by electrophoresing 1/10 volume of each sample solution on the multigel 4/20 (Daiichi Kagaku K.K.) and measuring the density of the 116 kD band after staining with Cooumassie Brilliant Blue.

[3] = tested on: rabbit model of osteoarthritis; experiment: Range of motion (ROM) of the right knee joint in rabbit models of osteoarthritis prepared using arthrodesis by cast; assay type: in vivo; conditions: 0.6 ml of 1 mg/ml solution/joint, right articular cavity twice per week for five weeks; solvent group 70%
Method: Models of osteoarthritis were prepared using arthrodesis by cast. The animals used were 12-week old male rabbits (Kbl: NZW, Kitayama Labesu K. K.). Under anesthesia by intramuscular administration of 2 mg/kg of xylazine hydrochloride (Selactal, Bayer A. G.) and 50 mg/kg of ketamine hydrochloride (Ketalar 50 for animals, Sankyo K.K.) (hereinafter referred to as “under anesthesia”), hair was cut off the right hind leg. Then after the region from the upper thigh to the toe was covered with the stockinette and cast pad (3M Medicine K.K.), the knee joint was fixed for three weeks at a stretched and bent position by casting tape (3M Medicine K.K.). […]
In accordance with Example 2, models of osteoarthritis of the knee were prepared using arthrodesis by cast and were divided into three groups of five animals per group so that the average weight and the range of motion of joints of each group became uniform. […] In accordance with Example 2, dosage samples were administered in the right articular cavity twice per week for five weeks and ROM of the joint of the right knee was measured.

[4] = group C pretreated with arachidonic acid 300 μM (FIG. 3, sample No. 11-15)

CCCCCCCCC=CCC=CCC=CCCCC(=O)O [5,8,11-eicosatrienoic acid]
Anti-inflammatory effect on carrageenan-induced edema [1]: anti-inflammatory effect

CCCCC/C=C\C/C=C\C/C=C\C/C=C\CCCC(=O)O [arachidonic acid]
Effect of addition of fatty acid on synthesis of type II collagen ([2]; 300 μM, seven days, group A pretreated with solvent (FIG. 3, sample No. 1-5)): inhibited synthesis of type II collagen | Inhibition of type II collagen synthesis in group C pretreated with arachidonic acid ([2]; 300 μM, group C pretreated with arachidonic acid 300 μM (FIG. 3, sample No. 11-15)): more conspicuous

CCCCC/C=C\C/C=C\CCCCCCCC(=O)O [linoleic acid]
Activity of recovering the synthesis of type II collagen inhibited by arachidonic acid [2, 4]: not observed

CCCCCCCC/C=C\CCCCCCCC(=O)O [oleic acid]
Activity of recovering the synthesis of type II collagen inhibited by arachidonic acid [2, 4]: not observed

CCCCCCCCC=CC/C=C\CCCCC(=O)OCC [solution A, 6,9-cis-octadecadienoic acid ethyl ester]
ROM at week five after the start of administration [3]: 80.2%

CCCCCCCCC=CC/C=C\CCCCCCC(=O)OCC [solution B, 8,11-cis-eicosadienoic acid ethyl ester]
ROM at week five after the start of administration [3]: 83.6%
